From publication PMC8262356, “SLC26A6-selective inhibitor identified in a small-molecule screen blocks fluid absorption in small intestine” (JCI Insight, 2021)

Tests used:
[1] = system: ileal closed loops in cystic fibrosis (CF) mice (homozygous F508del); assay: Closed ileal loop fluid absorption in CF mice; assay type: in vivo, mouse; settings: 30 μM luminal
Description: For fluid absorption studies in small intestine, mice were given free access to 5% dextrose in water but not solid food for 24 hours before experiments. Closed midjejunal and ileal loops were prepared and isolated as described previously ([29]). Mice were anesthetized with isoflurane, and body temperature was maintained during surgery at 36°C–38°C using a heating pad. A small abdominal incision was made to expose small intestine for isolation of 3–4 closed small intestinal loops (jejunum or ileum, length 2–3 cm) with sutures. Loops were injected with 100 μL PBS (pH 7.4, 137 mM NaCl, 2.7 mM KCl, 8 mM Na2HPO4, 1.8 mM KH2PO4, 1 mM CaCl2, 0.5 mM MgCl2) containing 30 μM PAT1inh-B01, 10 μM DRAinh-A270, or 10 μM tenapanor (MedChemExpress) (or vehicle, 0.1% DMSO in PBS). In some experiments, 30 μM PAT1inh-B01 and 10 μM DRAinh-A270 were used together. In some experiments to rule out effects of sodium-dependent phosphate transport, the loop lumen contained HEPES-buffered saline (pH 7.4, 137 mM NaCl, 4.5 mM KCl, 10 mM HEPES, 1 mM CaCl2, 0.5 mM MgCl2). The abdominal incision was closed with sutures, and mice were allowed to recover from anesthesia. Intestinal loops were removed at 0 and 30 minutes (in separate mice), and loop length and weight were measured to quantify fluid absorption. In parallel experiments, CF mice were used and loop studies were done as described above. In some experiments, loop fluid was emptied with a syringe, and pH was measured immediately using AB15 pH meter after brief centrifugation at 2000 g for 5 minutes at 4°C.

[2] = system: CaCC; assay: Short-circuit current in well-differentiated HBE cells, ATP response; assay type: cell-based, human; settings: 25 μM pretreatment
Description: (§1) PAT1inh-B01 selectivity was studied by testing its effects on related SLC26A family anion transporters and the Cl^– channel TMEM16A. These measurements used a similar Cl^–/I^– exchange protocol, but FRT cells separately expressed each of the SLC26A family members or TMEM16A. […] PAT1inh-B01 selectivity was also tested by short-circuit current (Isc) in well-differentiated human bronchial epithelial (HBE) cells, which have a complex ion transport mechanism that includes cystic fibrosis transmembrane conductance regulator (CFTR), epithelial Na^+ channel (ENaC), and Ca^+2-activated chloride channels (CaCCs) ([13]). […] Potential PAT1inh-B01 cytotoxicity was studied in FRT cells.
(§2) Figure 3 PAT1inh-B01 selectivity and cytotoxicity. […] Cl^–/I^– exchange or I^– influx measured in FRT cells coexpressing YFP and SLC26A isoforms or TMEM16A, with data shown for 25 μM PAT1inh-B01, DMSO vehicle control, and 500 μM niflumic acid (positive control for SLC26A transporters) or 10 μM TMinh-23 (positive control for TMEM16A). […] (C) (left) Short-circuit current (Isc) in well-differentiated HBE cells measured in the absence (top) and presence (bottom) of 25 μM PAT1inh-B01. […]
(§3) YFP-based cellular assays of slc26a3, slc26a4, SLC26A9, and TMEM16A function were performed as described previously ([7]). […] The activities of ENaC, CFTR, and CaCC were determined using well-differentiated HBE cells as described previously ([13]). […]

[3] = Solubility; assay type: physicochemical
[4] = system: TMEM16A; assay: Selectivity: I- influx in FRT cells coexpressing YFP and TMEM16A; assay type: cell-based; settings: 25 μM
Description: as §1, §2, §3

[5] = target: T1, slc26a4 (Mus musculus, UniProt Q9R155); assay: Selectivity: Cl-/I- exchange in FRT cells coexpressing YFP and slc26a4; assay type: cell-based; settings: 25 μM
T1 construct: expressed in transfected cells; host or cells: FRT cells coexpressing YFP
T1 sequence (Q9R155 1-780): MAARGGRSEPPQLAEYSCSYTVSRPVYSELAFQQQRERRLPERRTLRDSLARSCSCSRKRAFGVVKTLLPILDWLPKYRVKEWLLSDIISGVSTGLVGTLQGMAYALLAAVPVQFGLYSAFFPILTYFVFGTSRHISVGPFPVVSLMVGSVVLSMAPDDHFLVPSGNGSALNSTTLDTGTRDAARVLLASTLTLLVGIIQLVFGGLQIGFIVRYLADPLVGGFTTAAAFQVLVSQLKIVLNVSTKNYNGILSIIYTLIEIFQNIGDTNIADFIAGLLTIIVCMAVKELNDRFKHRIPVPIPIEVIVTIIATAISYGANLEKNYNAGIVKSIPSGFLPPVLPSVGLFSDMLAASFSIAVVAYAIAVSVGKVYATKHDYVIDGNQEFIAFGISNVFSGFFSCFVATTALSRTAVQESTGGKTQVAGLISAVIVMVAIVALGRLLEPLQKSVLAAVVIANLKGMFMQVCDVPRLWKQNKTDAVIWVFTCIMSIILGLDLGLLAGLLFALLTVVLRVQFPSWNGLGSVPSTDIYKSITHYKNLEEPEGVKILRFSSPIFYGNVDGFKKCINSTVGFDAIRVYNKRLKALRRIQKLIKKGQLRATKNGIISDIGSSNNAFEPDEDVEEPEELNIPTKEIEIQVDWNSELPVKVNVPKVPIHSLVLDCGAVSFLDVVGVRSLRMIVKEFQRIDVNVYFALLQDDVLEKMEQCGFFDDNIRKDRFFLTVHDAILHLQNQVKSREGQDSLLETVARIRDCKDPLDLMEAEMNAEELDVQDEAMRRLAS
Description: as §1, §2, §3

[6] = target: T2, CFTR (Homo sapiens, UniProt P13569); assay: Short-circuit current in well-differentiated HBE cells, forskolin/CFTRinh-172 response; assay type: cell-based; settings: 25 μM pretreatment
T2 construct: endogenous in cells; host or cells: well-differentiated human bronchial epithelial (HBE) cells at air-liquid interface
T2 sequence (P13569 whole entry): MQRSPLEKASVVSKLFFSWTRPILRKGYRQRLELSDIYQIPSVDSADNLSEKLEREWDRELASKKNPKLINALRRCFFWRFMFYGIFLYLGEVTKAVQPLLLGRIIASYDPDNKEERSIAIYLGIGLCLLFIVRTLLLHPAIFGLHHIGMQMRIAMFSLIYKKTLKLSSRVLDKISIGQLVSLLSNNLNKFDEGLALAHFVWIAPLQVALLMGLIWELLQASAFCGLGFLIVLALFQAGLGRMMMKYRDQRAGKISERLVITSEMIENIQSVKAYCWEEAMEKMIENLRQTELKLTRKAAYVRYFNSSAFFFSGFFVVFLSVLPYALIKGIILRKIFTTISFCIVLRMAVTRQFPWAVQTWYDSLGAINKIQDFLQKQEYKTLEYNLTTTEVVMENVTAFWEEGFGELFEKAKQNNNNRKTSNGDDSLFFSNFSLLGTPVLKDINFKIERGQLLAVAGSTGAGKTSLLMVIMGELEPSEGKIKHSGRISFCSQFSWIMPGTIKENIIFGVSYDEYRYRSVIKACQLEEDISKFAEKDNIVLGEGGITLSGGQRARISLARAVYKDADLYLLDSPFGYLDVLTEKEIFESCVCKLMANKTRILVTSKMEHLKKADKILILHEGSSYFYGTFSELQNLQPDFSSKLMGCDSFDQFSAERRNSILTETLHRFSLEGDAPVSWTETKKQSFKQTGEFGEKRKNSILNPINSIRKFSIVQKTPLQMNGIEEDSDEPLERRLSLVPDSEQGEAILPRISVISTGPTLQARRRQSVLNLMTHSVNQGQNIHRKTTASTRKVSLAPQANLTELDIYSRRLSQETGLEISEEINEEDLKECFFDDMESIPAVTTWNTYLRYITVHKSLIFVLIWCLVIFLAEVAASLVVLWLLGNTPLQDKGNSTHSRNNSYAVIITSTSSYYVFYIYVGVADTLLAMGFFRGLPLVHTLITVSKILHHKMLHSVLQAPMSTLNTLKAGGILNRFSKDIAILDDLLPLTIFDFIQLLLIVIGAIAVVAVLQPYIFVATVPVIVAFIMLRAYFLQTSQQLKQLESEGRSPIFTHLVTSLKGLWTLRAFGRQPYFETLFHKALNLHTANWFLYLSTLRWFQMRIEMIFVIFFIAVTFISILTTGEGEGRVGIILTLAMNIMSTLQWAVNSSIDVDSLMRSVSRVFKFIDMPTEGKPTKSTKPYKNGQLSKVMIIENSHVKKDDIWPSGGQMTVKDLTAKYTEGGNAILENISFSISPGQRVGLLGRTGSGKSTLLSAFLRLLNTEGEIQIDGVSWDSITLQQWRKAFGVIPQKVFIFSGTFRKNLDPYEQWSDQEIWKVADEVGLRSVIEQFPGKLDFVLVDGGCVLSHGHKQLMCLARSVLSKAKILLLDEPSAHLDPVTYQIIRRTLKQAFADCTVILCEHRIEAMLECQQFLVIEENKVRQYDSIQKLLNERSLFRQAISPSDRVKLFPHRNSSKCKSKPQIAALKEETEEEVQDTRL
Description: as §1, §2, §3

solubility [3]: favorable | inhibition of slc26a4 [5]: did not significantly inhibit | effect on CFTR activity (Isc response to forskolin/CFTRinh-172) [6]: no significant effect
SMILES: Cc1c(Br)c(C(F)(F)F)nn1CC(=O)N1CCc2nc3cc(-c4ccccc4)[nH]n3c(=O)c2C1 [PAT1inh-B01]
effect on fluid absorption from ilea of CF mice [1]: completely blocked | effect on CaCC activity (Isc response to ATP) [2]: no significant effect | inhibition of TMEM16A [4]: did not significantly inhibit
